Assay results reported in patent US20120302566A1, “INDANYLOXYDIHYDROBENZOFURANYLACETIC ACIDS” (BOEHRINGER INGELHEIM INTERNATIONAL GMBH, priority 2010, published 2012).

Tests used:
[1] = biological target: T1, human GPR40 receptor (Homo sapiens, UniProt O14842); assay: Cytosolic calcium measurement using the FLIPR system; type: cell-based; settings: FLIPR cytosolic Ca2+ peak height; 1321N1 cells stably expressing human GPR40; read-out: EC50 values on GPR40 determined as described in (A)
Protocol: (A) Cytosolic calcium measurement using the FLIPR system—1321N1 cells stably expressing human GPR40 receptor (Euroscreen, Belgium) were seeded 24 h before the assay in black clear-bottom collagen-coated 384-well plates in culture medium containing 10% FCS, 1% Na-Pyruvate and 400 μg/ml G418. On the assay day, wells were washed twice with 100 μL Krebs Ringer Buffer (KRB) containing 15 mM sodium hydrogencarbonate and 30 mM Hepes leaving 20 μl rest volume per well. Prior to stimulation the cells were loaded with the Ca^2+-sensitive fluorescent dye from the Calcium4 Assay Kit™ according to the Manufacturer's description (MDS Analytical technologies, Ismaning, Germany) for 80 min at room temperature in the dark, in the presence of 4 mM probenicid. Changes in cytosolic Ca^2+ concentration upon compound addition were monitored using a FLIPR Tetra device (Fluorescence Imaging Plate Reader; MDS Analytical technologies). The peak height of the obtained fluorescence signal was then used to calculate the EC50 values using GraphPad Prism 5 (Graphpad Software Inc, USA) using a sigmoidal curve fitting procedure allowing for a variable hill slope.

[2] = biological target: T1, human GPR40 receptor; assay: IP1 accumulation measurements using the IPOne assay system; type: cell-based; settings: IP1 accumulation (IPOne HTRF), 1 hour stimulation; 1321N1 cells stably expressing human GPR40; read-out: EC50 values on GPR40 determined as described in (B)
In short: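 1321N1 cells stably expressing human GPR40 were stimulated with compounds for 1 h at 37° in pH 7.4 HEPES buffer with 50 mM final LiCl. IP1 accumulation was then read by HTRF (IP1-d2/anti-IP1 Tb cryptate) after 1 h lysis at room temperature.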

T1 sequence (O14842 whole entry): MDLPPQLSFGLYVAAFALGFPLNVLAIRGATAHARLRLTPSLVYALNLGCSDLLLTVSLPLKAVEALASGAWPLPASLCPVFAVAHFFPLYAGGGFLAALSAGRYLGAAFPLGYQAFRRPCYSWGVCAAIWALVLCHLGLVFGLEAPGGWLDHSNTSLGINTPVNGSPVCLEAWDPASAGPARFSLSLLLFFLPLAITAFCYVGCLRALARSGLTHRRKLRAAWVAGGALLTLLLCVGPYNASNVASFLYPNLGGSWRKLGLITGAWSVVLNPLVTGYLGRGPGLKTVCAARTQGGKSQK

Compound: COC1(c2cccc3c2CC[C@H]3Oc2ccc3c(c2)OC[C@H]3CC(=O)O)CCC1 [Example 18, {(S)-6-[(R)-4-(1-Methoxy-cyclobutyl)-indan-1-yloxy]-2,3-dihydro-benzofuran-3-yl}-acetic acid]
- EC50 [1]: 21 nM
- EC50 [2]: 162 nM

Compound: Cn1ccc(-c2cccc3c2CC[C@H]3Oc2ccc3c(c2)OCC3CC(=O)O)cc1=O (stereo partly drawn) [Example 9, {6-[(R)-4-(1-Methyl-2-oxo-1,2-dihydro-pyridin-4-yl)-indan-1-yloxy]-2,3-dihydro-benzofuran-3-yl}-acetic acid]
- EC50 [1]: 3250 nM
- EC50 [2]: > 10000 nM

Compound: O=C(O)CC1COc2cc(O[C@@H]3CCc4c(C5=CCOCC5)cccc43)ccc21 (stereo partly drawn) [Example 8, {6-[(R)-4-(3,6-Dihydro-2H-pyran-4-yl)-indan-1-yloxy]-2,3-dihydro-benzofuran-3-yl}-acetic acid]
- EC50 [1]: 312 nM
- EC50 [2]: 1570 nM

Compound: O=C(O)C[C@H]1COc2cc(O[C@H]3CCc4c3cccc4C(F)(F)F)ccc21 (single isomer, unassigned) [Example 2, [6-(4-Trifluoromethyl-indan-1-yloxy)-2,3-dihydro-benzofuran-3-yl]-acetic acid]
- EC50 [1]: 27 nM
- EC50 [2]: 20 nM

Compound: COC(c1cccc2c1CCC2Oc1ccc2c(c1)OCC2CC(=O)O)C(F)F (stereo not shown) [Example 11, {6-[4-(2,2-Difluoro-1-methoxy-ethyl)-indan-1-yloxy]-2,3-dihydro-benzofuran-3-yl}-acetic acid]
- EC50 [1]: 628 nM
- EC50 [2]: 2230 nM

Compound: O=C(O)C[C@@H]1COc2cc(O[C@@H]3CCc4c(OC(F)F)cccc43)ccc21 [Example 17, {(S)-6-[(R)-4-Difluoromethoxy-indan-1-yloxy]-2,3-dihydro-benzofuran-3-yl}-acetic acid]
- EC50 [1]: 111 nM
- EC50 [2]: 139 nM

Compound: COc1ccc(-c2cccc3c2CC[C@H]3Oc2ccc3c(c2)OCC3CC(=O)O)cc1 (stereo partly drawn) [Example 10, {6-[(R)-4-(4-Methoxy-phenyl)-indan-1-yloxy]-2,3-dihydro-benzofuran-3-yl}-acetic acid]
- EC50 [1]: 333 nM
- EC50 [2]: 178 nM

Compound: O=C(O)C[C@H]1COc2cc(O[C@H]3CCc4c3cccc4C(F)(F)F)ccc21 (stereo in doubt) [3/4, [6-(4-Trifluoromethyl-indan-1-yloxy)-2,3-dihydro-benzofuran-3-yl]-acetic acid]
- EC50 [1]: 186 nM
- EC50 [2]: 501 nM

Compound: O=C(O)CC1COc2cc(OC3CCc4c3cccc4C(F)(F)F)ccc21 (mixture of isomers) [Example 1, [6-(4-Trifluoromethyl-indan-1-yloxy)-2,3-dihydro-benzofuran-3-yl]-acetic acid]
- EC50 [1]: 50 nM
- EC50 [2]: 69 nM

Compound: O=C(O)CC1COc2cc(O[C@@H]3CCc4c(Br)cccc43)ccc21 (mixture of isomers) [Example 6, {6-[(R)-4-Bromo-indan-1-yloxy]-2,3-dihydro-benzofuran-3-yl}-acetic acid]
- EC50 [1]: 49 nM
- EC50 [2]: 62 nM

Compound: O=C(O)CC1COc2cc(O[C@@H]3CCc4c(C5CCOCC5)cccc43)ccc21 (stereo partly drawn) [Example 12, {6-[(R)-4-(Tetrahydro-pyran-4-yl)-indan-1-yloxy]-2,3-dihydro-benzofuran-3-yl}-acetic acid]
- EC50 [1]: 459 nM
- EC50 [2]: 2690 nM

Compound: O=C(O)C[C@H]1COc2cc(O[C@H]3CCc4c3cccc4C(F)(F)F)ccc21 (single isomer, unassigned) [Example 5, [6-(4-Trifluoromethyl-indan-1-yloxy)-2,3-dihydro-benzofuran-3-yl]-acetic acid]
- EC50 [1]: 2280 nM
- EC50 [2]: 8990 nM

Compound: CC1(C)CCC=C1c1cccc2c1CC[C@H]2Oc1ccc2c(c1)OCC2CC(=O)O (mixture of isomers) [Example 15, {6-[(R)-4-(5,5-Dimethyl-cyclopent-1-enyl)-indan-1-yloxy]-2,3-dihydro-benzofuran-3-yl}-acetic acid]
- EC50 [1]: 3840 nM
- EC50 [2]: 30 nM

Compound: COC(c1cccc2c1CCC2Oc1ccc2c(c1)OC[C@H]2CC(=O)O)C1CCC1 (stereo partly drawn) [Example 14, {(S)-6-[4-(Cyclobutyl-methoxy-methyl)-indan-1-yloxy]-2,3-dihydro-benzofuran-3-yl}-acetic acid]
- EC50 [1]: 364 nM
- EC50 [2]: 125 nM

Compound: COC(c1cccc2c1CCC2Oc1ccc2c(c1)OCC2CC(=O)O)C(C)(C)C (stereo not shown) [Example 13, {6-[4-(1-Methoxy-2,2-dimethyl-propyl)-indan-1-yloxy]-2,3-dihydro-benzofuran-3-yl}-acetic acid]
- EC50 [1]: 583 nM
- EC50 [2]: 43 nM

Compound: CC1(C)CCCC1c1cccc2c1CC[C@H]2Oc1ccc2c(c1)OCC2CC(=O)O (stereo partly drawn) [Example 16, {6-[(R)-4-(2,2-Dimethyl-cyclopentyl)-indan-1-yloxy]-2,3-dihydro-benzofuran-3-yl}-acetic acid]
- EC50 [1]: 3190 nM
- EC50 [2]: 47 nM

Compound: Cn1cc(-c2cccc3c2CC[C@H]3Oc2ccc3c(c2)OCC3CC(=O)O)cn1 (stereo partly drawn) [Example 7, {6-[(R)-4-(1-Methyl-1H-pyrazol-4-yl)-indan-1-yloxy]-2,3-dihydro-benzofuran-3-yl}-acetic acid]
- EC50 [1]: 710 nM
- EC50 [2]: 2000 nM
